# Results: PubChem BioAssay (NCI)
#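 All cell lines were grown in 96-well plates and treated with compound for 48 hours. Here, GI50 denotes the concentration required for 50% inhibition of growth. TGI marks complete inhibition of growth.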
# Tested on: SK-MEL-5 melanoma
# Assay: DTP human tumour cell line panel, 48 h
Structure (SMILES),TGI,GI50
CN(C)C(=S)/N=c1\ss/c(=N\C(=S)N(C)C)n1-c1ccc2c(c1)OCO2,> 100 µM,–
COC(=O)C(=O)C(C(=O)C(=O)Nc1ccc(C)cc1C)c1nc2ccccc2[nH]c1=O (stereo not drawn),> 100 µM,–
Cc1ccc(N=NC(C(=O)c2ccccc2)C(=O)c2ccccc2)cc1,55.1 µM,–
Cc1ccc(NC(=O)C2C(=O)N(c3ccc(C)c(C)c3)C(=O)/C2=N/O)cc1C (stereo not drawn),> 100 µM,–
Nc1c(-c2ccc(Br)cc2)[n+]([O-])c2ccccc2[n+]1[O-],> 100 µM,–
C#CC[C@]12CC(=O)CC[C@H]1CC(=O)C2,> 100 µM,–
CNC=O.[O]=[Ge].[O]=[Ge].[O]=[Ge].[O]=[Ge][OH].[O]=[Ge][OH],> 100 µM,–
N#CCCN(c1ccc(/C=C2\N=C(c3ccc(Cl)cc3)OC2=O)cc1)S(=O)(=O)c1ccccc1,> 100 µM,–
Cc1cc(NS(=O)(=O)c2ccc(NC(=O)c3cccc4c(=O)c5ccccc5[nH]c34)cc2)no1,> 100 µM,–
O=C(/C=C/c1ccccc1Cl)c1ccccc1Cl,99.1 µM,–
COC(=O)C1=C(c2ccc3c(c2)OCO3)O[C@H](c2ccc3c(c2)OCO3)[C@H]1COC(C)=O,75.2 µM,–
CC(C)=[CH][Sb]([Br])([CH]=C(C)C)([CH]=C(C)C)[CH]=C(C)C,24.3 µM,3.82 µM
CCOC(=O)[C@H]1Nc2ccc(C)cc2C2c3ccccc3CC21 (stereo partly drawn),> 100 µM,–
N#CCCN(CCC#N)c1ccc(/C=C2\N=C(CN3C(=O)c4ccccc4C3=O)OC2=O)cc1,> 100 µM,–
CSc1nc(NC2OC(COC(C)=O)C(OC(C)=O)C(OC(C)=O)C2OC(C)=O)c2c(OC(C)=O)c(C)c(=O)oc2n1 (stereo not drawn),> 100 µM,–
O=C(NC1CCCCCC1)C1C(=O)N(C2CCCCCC2)C(=O)/C1=N\O (stereo not drawn),> 100 µM,–

Structure (SMILES),TGI,GI50
COc1ccc(C(=O)O)c(Cc2cccc3ccccc23)c1,> 100 µM,–
CC#CC(=O)Nc1ccccc1CC(c1c[nH]c2ccccc12)c1c[nH]c2ccccc12,29.8 µM,–
NCCCNCCSSCCCCS(=O)O,32.7 µM,–
COC(=O)C(=O)C(C(=O)C=C(C)C)C(=O)C(=O)Nc1ccc(Cl)cc1C (stereo not drawn),> 100 µM,–
Cc1cccc(C(C)(C)C)c1NC(=O)CCc1n[nH]c(=S)o1,> 100 µM,–
Cc1ccc(C(=O)/C=C/c2ccccc2O)c(C)c1,> 100 µM,–
O=S(O)CCCCSSCCCCSSCCCCS(=O)O,24.3 µM,–
N#Cc1cnsc1,> 100 µM,–
CC(=O)SCCC1c2[nH]c3ccccc3c2CCN1O (stereo not drawn),> 100 µM,–
O=C1C2=C(CC3C(C2)C3(Br)Br)C(=O)C2=C1CC1C(C2)C1(Br)Br (stereo not drawn),> 100 µM,–
CC(C)=CC(=O)N1CCN(C(=O)C=C(C)C)CC1,> 100 µM,–
COc1ccc(C2CC(=O)c3c(O)c(OC)c(OC)c(OC)c3O2)c(O)c1 (stereo not drawn),2.03 µM,0.0673 µM
CC(=O)c1ccc(NC(=O)/C(Cc2ccccn2)=N/NC(=O)C[N+](C)(C)C)cc1,> 100 µM,–
CCc1cccc(C)c1NC(C)=O,> 100 µM,–
O=C(CC(=O)N1N=C(c2ccccc2)C(N=Nc2ccc(Cl)cc2)C1=O)Nc1ccccc1Cl (stereo not drawn),51.4 µM,–

# Tested on: IGROV1 ovarian
# Assay: DTP human tumour cell line panel, 48 h
Structure (SMILES),TGI,GI50
CCCCCCCCCCCCCCCCOP(=O)(O)Oc1ccc(/C=C\c2ccc(OP(=O)(O)OCCCCCCCCCCCCCCCC)cc2)cc1,> 100 µM,–
CCN(CC)C(=O)C/C(C)=N/NC(=O)c1ccncc1,> 100 µM,–
CN(C)C(=S)/N=c1\ss/c(=N\C(=S)N(C)C)n1-c1ccc2c(c1)OCO2,> 100 µM,–
COC(=O)C(=O)C(C(=O)C(=O)Nc1ccc(C)cc1C)c1nc2ccccc2[nH]c1=O (stereo not drawn),> 100 µM,–
Cc1ccc(N=NC(C(=O)c2ccccc2)C(=O)c2ccccc2)cc1,> 100 µM,–
Cc1ccc(NC(=O)C2C(=O)N(c3ccc(C)c(C)c3)C(=O)/C2=N/O)cc1C (stereo not drawn),> 100 µM,–
Nc1c(-c2ccc(Br)cc2)[n+]([O-])c2ccccc2[n+]1[O-],> 100 µM,–
C#CC[C@]12CC(=O)CC[C@H]1CC(=O)C2,> 100 µM,–
CNC=O.[O]=[Ge].[O]=[Ge].[O]=[Ge].[O]=[Ge][OH].[O]=[Ge][OH],> 100 µM,–
N#CCCN(c1ccc(/C=C2\N=C(c3ccc(Cl)cc3)OC2=O)cc1)S(=O)(=O)c1ccccc1,> 100 µM,–
Cc1cc(NS(=O)(=O)c2ccc(NC(=O)c3cccc4c(=O)c5ccccc5[nH]c34)cc2)no1,> 100 µM,–
O=C(/C=C/c1ccccc1Cl)c1ccccc1Cl,33.3 µM,–
COC(=O)C1=C(c2ccc3c(c2)OCO3)O[C@H](c2ccc3c(c2)OCO3)[C@H]1COC(C)=O,> 100 µM,–
CC(C)=[CH][Sb]([Br])([CH]=C(C)C)([CH]=C(C)C)[CH]=C(C)C,66.3 µM,5.57 µM
CCOC(=O)[C@H]1Nc2ccc(C)cc2C2c3ccccc3CC21 (stereo partly drawn),> 100 µM,–
N#CCCN(CCC#N)c1ccc(/C=C2\N=C(CN3C(=O)c4ccccc4C3=O)OC2=O)cc1,> 100 µM,–
CSc1nc(NC2OC(COC(C)=O)C(OC(C)=O)C(OC(C)=O)C2OC(C)=O)c2c(OC(C)=O)c(C)c(=O)oc2n1 (stereo not drawn),> 100 µM,–

Structure (SMILES),TGI,GI50
O=C(NC1CCCCCC1)C1C(=O)N(C2CCCCCC2)C(=O)/C1=N\O (stereo not drawn),> 100 µM,–
COc1ccc(C(=O)O)c(Cc2cccc3ccccc23)c1,> 100 µM,–
CC#CC(=O)Nc1ccccc1CC(c1c[nH]c2ccccc12)c1c[nH]c2ccccc12,39.2 µM,–
NCCCNCCSSCCCCS(=O)O,> 100 µM,–
COC(=O)C(=O)C(C(=O)C=C(C)C)C(=O)C(=O)Nc1ccc(Cl)cc1C (stereo not drawn),> 100 µM,–
Cc1cccc(C(C)(C)C)c1NC(=O)CCc1n[nH]c(=S)o1,> 100 µM,–
Cc1ccc(C(=O)/C=C/c2ccccc2O)c(C)c1,> 100 µM,–
O=S(O)CCCCSSCCCCSSCCCCS(=O)O,> 100 µM,–
N#Cc1cnsc1,> 100 µM,–
CC(=O)SCCC1c2[nH]c3ccccc3c2CCN1O (stereo not drawn),> 100 µM,–
CCOC(=O)NC(=O)c1cn(CCCOC(=O)NCCCCCCNC(=O)OCCCn2c(=O)c(C(=O)NC(=O)OCC)cn(C)c2=O)c(=O)n(C)c1=O,> 100 µM,–
O=C1C2=C(CC3C(C2)C3(Br)Br)C(=O)C2=C1CC1C(C2)C1(Br)Br (stereo not drawn),> 100 µM,–
CC(C)=CC(=O)N1CCN(C(=O)C=C(C)C)CC1,> 100 µM,–
COc1ccc(C2CC(=O)c3c(O)c(OC)c(OC)c(OC)c3O2)c(O)c1 (stereo not drawn),39.6 µM,0.535 µM
CC(=O)c1ccc(NC(=O)/C(Cc2ccccn2)=N/NC(=O)C[N+](C)(C)C)cc1,> 100 µM,–
CCc1cccc(C)c1NC(C)=O,> 100 µM,–
O=C(CC(=O)N1N=C(c2ccccc2)C(N=Nc2ccc(Cl)cc2)C1=O)Nc1ccccc1Cl (stereo not drawn),> 100 µM,–

# Tested on: OVCAR-3 ovarian
# Assay: DTP human tumour cell line panel, 48 h
row,Structure (SMILES),TGI
1,CCCCCCCCCCCCCCCCOP(=O)(O)Oc1ccc(/C=C\c2ccc(OP(=O)(O)OCCCCCCCCCCCCCCCC)cc2)cc1,> 100 µM
2,CCN(CC)C(=O)C/C(C)=N/NC(=O)c1ccncc1,> 100 µM
3,CN(C)C(=S)/N=c1\ss/c(=N\C(=S)N(C)C)n1-c1ccc2c(c1)OCO2,> 100 µM
4,COC(=O)C(=O)C(C(=O)C(=O)Nc1ccc(C)cc1C)c1nc2ccccc2[nH]c1=O (stereo not drawn),> 100 µM
